Paper PMC10954796, “Post-translational modifications of beta-amyloid alter its transport in the blood-brain barrier in vitro model” (Frontiers in Molecular Neuroscience, 2024)
Ends that are not written are not given here.

Target: T1, sRAGE (Homo sapiens, UniProt Q15109)
T1 construct: the soluble extracellular part of RAGE (sRAGE); purchased Abcam
Experiment: Microscale thermophoresis, interaction with sRAGE
Format: binding
Conditions: MST, Monolith NT.115; 50 nM RED-tris-NTA-labeled His-tag sRAGE; peptide 6.1 nM to 200 μM; 4% DMSO, 20% glycerol; mean ± SD, n = 4–5; read-out: dissociation constant (Kd) with sRAGE

T1 sequence (Q15109 23-342 limits assumed): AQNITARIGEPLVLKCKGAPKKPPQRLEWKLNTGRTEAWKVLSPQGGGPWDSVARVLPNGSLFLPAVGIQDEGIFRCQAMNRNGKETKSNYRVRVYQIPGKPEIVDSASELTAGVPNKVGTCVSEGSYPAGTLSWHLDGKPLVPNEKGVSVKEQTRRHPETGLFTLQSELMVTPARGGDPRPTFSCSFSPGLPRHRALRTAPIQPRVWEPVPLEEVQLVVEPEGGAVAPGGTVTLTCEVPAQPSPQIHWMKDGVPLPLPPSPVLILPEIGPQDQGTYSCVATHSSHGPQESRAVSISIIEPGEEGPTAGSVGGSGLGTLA

LVFFAEDVGSNKGAIIGLMVGGVVIA [Aβ17 − 42]
Kd: 10 ± 5 µM
